Source: US11421001B2, “Template-fixed peptidomimetics” (UNIVERSITAET ZUERICH, priority 2007, dated 2022)
Positions of bridges follow the written chain, without caps; N, C: chain ends. Non-standard residues stand in square brackets, D forms with d. Residues, ends and D or L forms follow the SMILES beside them. Dab = NCC[C@H](N)C(=O)O

What was measured:
Format in all cases: cell-based
human CXCR4 = molecular target: T1, human CXCR4 (Homo sapiens, UniProt P61073); experiment: Ca2+ assay: CXCR4-antagonizing activity; details: mouse pre-B cell line 300-19 transfected with human CXCR4; calcium mobilization induced by 10 nM SDF-1; read-out: IC50 (nM) Ca2+ assay
T1 construct: expressed in transfected cells; host or cells: mouse pre-B cell line 300-19
Method: 2.2. Ca^2+− Assay: CXCR4-Antagonizing Activity of the Peptides.
Increases in intracellular calcium were monitored using a Flexstation 384 (Molecular Devices, Sunnyvale, Calif.) to assay the peptides for CXCR4 antagonism in a mouse pre-B cell line 300-19 stably transfected with human CXCR4 [see references 1, 2 and 3, below]. The cells were batch loaded with the Calcium 3 Assay kit (Molecular Devices) in assay buffer (Hanks Balanced salt solution, HBSS, 20 mM HEPES, pH 7.4, 0.1% BSA) for 1 h at room temperature and then 200,000 labeled cells were dispensed into black 96 well assays plates (Costar No. 3603). A 20-fold concentrated solution of peptide in assay buffer was added to the cells and the whole plate was centrifuged to settle the cells to the bottom of the wells. Calcium mobilization induced by 10 nM stromal-derived factor-1 (SDF-1) was measured in the Flexstation 384 (excitation, 485 […]) for 90 seconds. A maximal change in fluorescence response above baseline was used to calculate antagonist activity. The data for dose response curves (antagonist concentration versus % maximum response) were fitted to a four parameter logistic equation using SoftmaxPro 4.6 (Molecular Devices), from which IC50% values were calculated.

FIGS-Assay = details: 48 hours of co-cultivation; ONPG read out at 405 nm
Method: The assay was performed according to ref. 5, below. Stock dilutions of the peptides (10 μM) were prepared by dissolving in […] at room temperature. Stock solutions were kept at +4° C., light protected. Working dilutions were prepared extemporaneously by serial dilution in Phosphate Buffered Saline (PBS) and added in a final volume of 10 μl directly to the cell cultures. After 48 hours of co-cultivation the cultures were rinsed with PBS and then exposed to glutaraldehyde/formaldehyde (0.2%/2%) in PBS for five minutes. For photometric quantification the fixed cultures were subsequently incubated with ortho-nitro-phenyl-galactopyranoside (ONPG) as a β-galactosidase substrate, which was enzymatically converted into the chromophore ortho-nitrophenol (ONP). The read out is directly obtained by measuring optical density of wells at 405 nm in an iEMS 96well-plate reader.
‘CCR5’ cells were cultured in DMEM medium with […] glucose, 10% fetal bovine serum (FBS), supplemented with 50 U/ml Penicillin and 50 μg/ml Streptomycin (Pen/Strept.). Hut/4-3 cells were maintained in RPMI medium, 10% FBS, supplemented with Pen/Strept. and 10 mM HEPES. HELA cells and CCRF-CEM cells were maintained in RPMI1640 plus 5% FBS, Pen/Strept and 2 mM L-Glutamine. Cos-7 cells were grown in DMEM medium with […] glucose supplemented with 10% FCS, Pen/Strept. and 2 mM L-Glutamine. […]

[1] = test system: human red blood cells (hRBC); experiment: Hemolysis
Method: The peptides were tested for their hemolytic activity against human red blood cells (hRBC). Fresh hRBC were washed three times with phosphate buffered saline (PBS) by centrifugation for 10 min at 2000×g. Peptides at a concentration of 100 μM were incubated with 20% v/v hRBC for 1 hour at 37° C. The final erythrocyte concentration was approximately 0.9×10^9 cells per ml. A value of 0% resp. 100% cell lysis was determined by incubation of the hRBC in the presence of PBS alone and respectively 0.1% Triton X-100 in H2O. The samples were centrifuged and the supernatant was 20-fold diluted in PBS buffer and the optical density (OD) of the sample at […] was measured. The 100% lyses value (OD540H2O) gave an OD540 of approximately 1.3-1.8. Percent hemolysis was calculated as follows: (OD540peptide/OD540H2O)×100%.

T1 sequence (P61073 whole entry): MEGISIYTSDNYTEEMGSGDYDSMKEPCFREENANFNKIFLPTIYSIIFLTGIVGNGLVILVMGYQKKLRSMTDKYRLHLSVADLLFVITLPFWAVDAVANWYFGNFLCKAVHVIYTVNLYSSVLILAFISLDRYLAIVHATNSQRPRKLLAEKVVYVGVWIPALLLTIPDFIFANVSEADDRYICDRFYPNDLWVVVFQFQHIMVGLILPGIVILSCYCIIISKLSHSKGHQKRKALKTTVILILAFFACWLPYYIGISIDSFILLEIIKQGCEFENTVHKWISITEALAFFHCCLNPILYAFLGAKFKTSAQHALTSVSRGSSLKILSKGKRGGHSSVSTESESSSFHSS

## C[C@@H]1NC(=O)[C@H](CO)NC(=O)[C@@H]2CSSC[C@H](NC(=O)[C@H](Cc3ccc(O)cc3)NC(=O)[C@H](CCCNC(=N)N)NC(=O)[C@H](CCN)NC(=O)[C@H]3CCCN3C1=O)C(=O)N[C@@H](Cc1ccc(O)cc1)C(=O)N[C@@H](CCC(N)=O)C(=O)N[C@@H](CCCCN)C(=O)N1CCC[C@@H]1C(=O)N1CCC[C@H]1C(=O)N[C@@H](Cc1ccc(O)cc1)C(=O)N[C@@H](Cc1c[nH]cn1)C(=O)N[C@@H](Cc1ccc(O)cc1)C(=O)N2 [Example 2] (cyclo(YHYCSA[dP][Dab]RYCYQK[dP]P); disulfide 4-11)
Human CXCR4
  IC50: 4.1 nM
FIGS-Assay
  IC50: 24.7 nM
[1]
  Hemo-lysis at 100 μM: 0.3
